Reference: article PMC8225008, “Development of Non-Ethoxypropanoic Acid Type Cryptochrome Inhibitors with Circadian Molecular Clock-Enhancing Activity by Bioisosteric Replacement” (Pharmaceuticals, 2021)

Legend:
hCRY1 = target: T1, hCRY1 (Homo sapiens, UniProt Q16526); test: Surface plasmon resonance, CRY1; format: binding; set-up: GST; purchased MyBioSource; host or cells: baculovirus expression system; conditions: SPR, His-tagged CRY1, Langmuir 1:1 model
T1 sequence (Q16526 1-586): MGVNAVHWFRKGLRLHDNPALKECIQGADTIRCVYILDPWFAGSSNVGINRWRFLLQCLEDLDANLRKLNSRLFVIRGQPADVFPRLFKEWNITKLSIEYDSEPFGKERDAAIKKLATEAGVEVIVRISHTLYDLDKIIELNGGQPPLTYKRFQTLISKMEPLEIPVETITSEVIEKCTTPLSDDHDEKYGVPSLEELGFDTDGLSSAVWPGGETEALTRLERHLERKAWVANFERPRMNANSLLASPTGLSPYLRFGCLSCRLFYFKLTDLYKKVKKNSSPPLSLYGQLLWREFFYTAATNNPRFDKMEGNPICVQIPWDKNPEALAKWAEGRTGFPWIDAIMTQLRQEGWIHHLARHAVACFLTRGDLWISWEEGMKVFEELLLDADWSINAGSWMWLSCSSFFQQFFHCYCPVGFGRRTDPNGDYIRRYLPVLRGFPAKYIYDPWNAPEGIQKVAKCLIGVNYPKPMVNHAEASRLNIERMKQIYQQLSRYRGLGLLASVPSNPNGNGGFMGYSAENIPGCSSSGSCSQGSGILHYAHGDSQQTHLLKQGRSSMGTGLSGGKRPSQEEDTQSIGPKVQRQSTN
Protocol: We used a ProteOn XPR36 system (Bio-Rad, Hercules, CA, USA) equipped with a HTE sensor chip (high capacity tris-NTA for histidine-tagged […] capture, Bio-Rad) for surface plasmon resonance analyses. Purified target proteins (6xHis- and GST-tagged hCRY1 and hCRY2) were prepared by a baculovirus expression system (MyBioSource, San Diego, CA, USA). Phosphate buffered saline (PBS) plus 0.005% Tween 20 was used as the running buffer. The 6xHis-hCRY1 and 6xHis-hCRY2 proteins were immobilized onto separate channels of a HTE chip by injecting 210 μL protein sample (2.0 μg/mL) into flow cells (30 μL/min) to allow saturation. Serially diluted compound 2d samples (50–800 μM) were prepared in 4% DMSO in TBS-T buffer. […] Recorded resonance units (RU) were normalized and plotted against chemical concentration. […]
(§1) The EC50 values for luciferase reporter assay were calculated based on a logistic four-parametric equation using the mean values of intrinsic activation (SigmaPlot 10.0; Systat Software Inc., San Jose, CA, USA). The IC50 and t1/2 values for the cytochrome P450 inhibition assay and metabolic stability test were calculated by WinNonlin software (Pharsight, Mountain View, CA, USA). Pharmacokinetic parameters were calculated using non-compartmental analysis (WinNonlin v.8.3; Pharsight, Mountain View, CA, USA). […]

[1] = In vivo pharmacokinetics in rats after IV or PO administration; set-up: species or system Sprague Dawley (SD) male rats; conditions: male, Sprague Dawley, rat, oral 5 mg/kg, measured as 2d form in plasma
Protocol: For in vivo pharmacokinetic studies, Sprague Dawley (SD) male rats (weighing 270–280 g) were purchased from Orient Bio Inc. (Seongnam, Korea). Experimental protocols involving animal use were carefully reviewed and approved by the Institutional Animal Care and Use Committee at Gachon University. Prior to studies, animals fasted for 18 h, but with free access to water. Compound 5d or 2d was dissolved in a dosing vehicle consisting of PEG400, normal saline, and dimethylsulfoxide in a ratio of 6:3:1 (v/v/v%) to make a 2 mg/mL dosing solution. […]
To determine drug concentration levels in plasma, the Agilent 1290 UHPLC-DAD system with Polar RP column (3 μm, 150 mm × 2 mm ID., Phenomenex) was used for chromatographic separations. […] The total run time was 4.4 min for samples which were monitored at 260 nm. […]
as §1

For `CC(=NOCc1ccc([N+](=O)[O-])cc1)c1cccc(OCC(=O)O)c1` [Compound 2d, 2-(3-(1-(((4-nitrobenzyl)oxy)imino)ethyl)phenoxy)acetic acid], the Kd (hCRY1) was 389 µM, the half-life [1] was 6.52 ± 0.793 h and the AUC ([1]; read-out: AUCinfinite (converted)) was 184 µg·h/mL.
